Key:
[1] = biological target: T1, SR1 (Homo sapiens, UniProt Q8IWB7); experiment: Recombinant protein binding to derivatised beads: inhibition by free phosphoinositides (FIG. 11); conditions: all lipids at one concentration, relative affinity
T1 construct: Multiple overlapping clones allowed prediction of full-length human ORFs for each protein; EE (N); made in house; host or cells: Sf9 (baculovirus)
T1 sequence (Q8IWB7 1-410): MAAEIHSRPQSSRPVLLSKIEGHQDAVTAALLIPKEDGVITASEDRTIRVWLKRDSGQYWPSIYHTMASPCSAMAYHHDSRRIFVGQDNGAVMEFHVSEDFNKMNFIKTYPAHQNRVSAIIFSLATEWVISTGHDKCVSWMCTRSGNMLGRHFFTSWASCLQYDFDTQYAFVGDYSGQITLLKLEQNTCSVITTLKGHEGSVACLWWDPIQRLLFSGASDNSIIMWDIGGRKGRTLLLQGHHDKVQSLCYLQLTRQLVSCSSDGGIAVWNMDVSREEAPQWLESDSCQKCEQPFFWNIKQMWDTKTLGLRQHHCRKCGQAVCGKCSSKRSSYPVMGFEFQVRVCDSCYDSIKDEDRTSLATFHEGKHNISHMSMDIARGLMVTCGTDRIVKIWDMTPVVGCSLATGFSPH
Source text: (§1) FIG. 11. Protein binding to derivatised beads: inhibition by free phosphoinositides. Recombinant proteins (in Cos cell lysates or expressed and purified) were bound to PtdIns(3,4,5)P3 or PtdIns(3,4)P2 beads in the presence of various free phosphoinositides (for details, see Methods). For PIP3-E, a full length construct was expressed in Cos cells while a truncated version (residues 40-437) was purified from E.Coli. […] Unless otherwise indicated, the first lane was loaded with a sample equivalent to 1% (Cos cell lysates) or 10% (purified recombinant proteins) of the protein sample that was incubated with beads. As appropriate, tagged proteins were detected with antibodies (anti-myc, anti-GFP, anti-HIS, or anti-EE; see Methods) or by silver-staining (PIP3-G/H-EE, EE-myosin 1F, GST-cytohesin-4, DAPP1, PIP3-E, MEG-2 and CDC42-GAP). For each protein, the data shown are representative of information collected in 4 independent experiments. […]
(§2) Samples of the supernatants were diluted up to 4-fold in lysis buffer, depending on expression levels, and mixed with indicated concentrations of phosphoinositide in 1 ml (FIG. 11) for 10 min on ice. […] Proteins were eluted with SDS sample buffer, separated by SDS-PAGE and detected by immunoblotting [anti-myc (monoclonal 9E10) or anti-GFP (rabbit polyclonal): Clontech). […]

[2] = biological target: T2, SR3 (Homo sapiens, UniProt Q9HBF4); experiment: as above; conditions: all lipids at one concentration, relative affinity
T2 construct: Multiple overlapping clones allowed prediction of full-length human ORFs for each protein; EE (N); made in house; host or cells: Sf9 (baculovirus)
T2 sequence (Q9HBF4 1-777): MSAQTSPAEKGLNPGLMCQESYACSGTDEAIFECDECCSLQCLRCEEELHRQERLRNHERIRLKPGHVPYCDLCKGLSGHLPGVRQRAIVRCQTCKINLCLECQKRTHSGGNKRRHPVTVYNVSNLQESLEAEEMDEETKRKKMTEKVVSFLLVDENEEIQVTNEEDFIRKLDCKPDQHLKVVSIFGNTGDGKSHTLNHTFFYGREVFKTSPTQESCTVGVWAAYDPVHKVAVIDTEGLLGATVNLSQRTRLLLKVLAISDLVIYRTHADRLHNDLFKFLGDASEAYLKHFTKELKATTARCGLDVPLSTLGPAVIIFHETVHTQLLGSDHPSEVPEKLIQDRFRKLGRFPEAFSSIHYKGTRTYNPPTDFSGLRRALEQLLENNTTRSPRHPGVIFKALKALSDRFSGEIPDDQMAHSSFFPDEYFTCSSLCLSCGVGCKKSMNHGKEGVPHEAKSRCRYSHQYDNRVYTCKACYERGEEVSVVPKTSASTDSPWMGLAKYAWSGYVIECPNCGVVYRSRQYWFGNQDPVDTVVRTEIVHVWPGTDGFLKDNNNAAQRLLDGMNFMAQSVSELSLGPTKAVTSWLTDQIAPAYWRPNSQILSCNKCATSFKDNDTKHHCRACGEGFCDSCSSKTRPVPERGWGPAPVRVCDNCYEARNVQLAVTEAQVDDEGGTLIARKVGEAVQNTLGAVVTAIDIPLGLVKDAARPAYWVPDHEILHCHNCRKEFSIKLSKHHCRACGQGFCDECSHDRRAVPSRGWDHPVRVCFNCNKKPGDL
Source text: as §1, §2

[3] = biological target: T3, α-tocopherol-transfer protein (ATTP) (Homo sapiens, UniProt P49638); experiment: as above; conditions: all lipids at one concentration, relative affinity
T3 construct: His (N); made in house; host or cells: E. coli
T3 sequence (P49638 1-278): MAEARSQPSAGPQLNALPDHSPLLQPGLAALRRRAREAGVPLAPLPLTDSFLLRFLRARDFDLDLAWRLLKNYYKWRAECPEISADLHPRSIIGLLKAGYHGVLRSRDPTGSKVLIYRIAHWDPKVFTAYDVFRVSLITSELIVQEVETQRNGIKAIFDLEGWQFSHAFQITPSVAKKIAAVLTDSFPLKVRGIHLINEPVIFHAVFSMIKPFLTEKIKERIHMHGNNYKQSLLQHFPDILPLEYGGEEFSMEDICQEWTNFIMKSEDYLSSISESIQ
Source text: as §1, §2

[4] = Solubility of ω-amino phosphatidic acid in solvents; format: physicochemical; conditions: in a range of solvents; chloroform-methanol-water needed
Procedure: The immobilised PA [1] was prepared by coupling of the ω-amino phosphatidic acid (−), which was synthesised in 7 steps starting from the optically pure protected glycerol derivative (−), with the N-hydroxysuccinimide (NHS) activated ester agarose resin, Affi-Gel 10, as is depicted in Scheme 1. […] Excess resin (ca. 5 equiv. of NHS-groups) was used, resulting in a loading of 80% [2] onto the beads, as determined by the quantification of recovered by 1H-NMR in the presence of an internal standard.
Finally, the PA amine 33 and PtdIns(4,5)P2 amine 34 were coupled to the N-hydroxysuccinimide (NHS)-activated ester resin, Affi-Gel 10, to afford the corresponding affinity matrices 31 and 32. The PtdIns(4,5)P2 modified matrix was prepared in water using excess NaHCO3, by reacting the activated Affi Gel 10 [resin […] (4 mL)] with the amine 34 ([…]) to give a loading of 4.5 mmol as judged from the recovery of the amino phospholipid 34, that was quantified by 500 MHz ^1H-NMR spectroscopy in the presence of myo-inositol orthoformate 43 as the internal standard.

CCCCCCCCCCCCCCCC(=O)OC[C@H](COP(=O)(O)O[C@@H]1[C@H](O)[C@H](OP(=O)(O)O)[C@@H](O)[C@H](O)[C@H]1O)OC(=O)CCCCCCCCCCCCCCC [PtdIns3P]
displacement of SR1 from PtdIns(3,4)P2 beads by free phosphoinositide [1]: most effectively
displacement of SR3 from PtdIns(3,4)P2 beads by free phosphoinositide [2]: most effectively

CCCCCCCCCCCCCCCC(=O)OC[C@H](COP(=O)(O)OC1[C@H](O)[C@H](O)C(OP(=O)(O)O)[C@H](O)[C@H]1O)OC(=O)CCCCCCCCCCCCCCC (some centres unmarked) [PtdIns4P]
displacement of ATTP from PtdIns(3,4)P2 beads by free phosphoinositide [3]: displaced most effectively

CCCCCCCCCCCCCCCC(=O)OC[C@H](COP(=O)(O)O[C@H]1[C@H](O)[C@@H](OP(=O)(O)O)[C@H](O)[C@@H](O)[C@H]1O)OC(=O)CCCCCCCCCCCCCCC [PtdIns5P]
displacement of ATTP from PtdIns(3,4)P2 beads by free phosphoinositide [3]: displaced most effectively

CCCCCCCCCCCCCCCC(=O)O[C@H](COC(=O)CCCCCCCCCCCN)COP(=O)(O)O [[2], 1-O-(12-Amino)dodecanoyl-2-O-hexadecanoyl-sn-glycer-3-ylphosphate]
solubility [4]: poor solubility

Reference: patent publication US7820803B2, “Immobilized phosphatidic acid probe” (priority 2000, dated 2010)
